{"source": "patent US4892887A", "about": "“N,N'-bis(sulfonyl)hydrazines having antineoplastic activity” (Yale University, priority 1988, dated 1990)", "key": {"[1]": {"tested_on": "B16 melanoma cells", "experiment": "Cytotoxicity: colony-forming ability of B16 melanoma cells", "format": "cell-based", "conditions": "Mus musculus, 1 hour exposure, 12 days incubation, average of two determinations, read-out: LD50 (the source's name)", "procedure": "The cytotoxicity of compounds 8 and 12 was determined by measuring their effects on the colony-forming ability of B16 melanoma cells. The cells were maintained in Eagle's minimum essential medium supplemented with 10% fetal bovine serum. To obtain exponentially growing B16 melanoma cells, a 25 cm^2 flask was inoculated with 10^5 cells for two days before addition of drug. The cell monolayer was exposed to various concentrations of compound for 1 hour. After exposure, the layer was washed twice with PBS to remove the compound. The cells were harvested with 2 mM EDTA in PBS, and 200 cells were plated on a 60 mm dish with 5 mL of medium. After incubation for 12 days, the colonies were stained with crystal violet and counted. […] The LD50 was determined from the individual dose-response curves."}, "[2]": {"tested_on": "L1210 leukemia", "experiment": "Survival time of mice bearing the L1210 leukemia", "format": "in vivo, mouse (CDF-1 mice)", "conditions": "for Av. Change wt. %: L1210 mice", "description": "The ascites cell forms of the L1210 leukemia, Sarcoma 180 and P388 leukemia were propagated in CDF-1 mice. […] Mice were weighed during the course of the experiments, and the percentage change in body weight from the onset to termination of therapy was used as an indication of host toxicity.\nEach value represents the average of 5 animals per group."}, "[3]": {"tested_on": "B16 melanoma", "experiment": "Survival time of mice bearing the B16 melanoma", "format": "in vivo, mouse (C57B1 mice)", "conditions": "for Max. % T/C: Table IV, B16, at optimum effective daily dose; for Av. Change in wt., %: at optimum effective daily dose, B16 mice", "quoted_text": "This tumor was propagated in C57B1mice. Transplantation was carried out by removing tumors from donor mice bearing 14-day subcutaneous tumor growths. The tissue was fragmented to make a well-dispersed cellular suspension and diluted with Fischer's medium without serum so that one gram of tissue was suspended in 5 ml of solution. A portion (0.2 ml) of the resulting cell suspension was injected intraperitoneally into each recipient animal. All compounds were administered over a wide range of dosage levels by intraperitoneal injection, beginning 24 hours after tumor implantation, once daily for 6 consecutive days. The test compounds were injected as fine suspensions following homogenization in 2 to 3 drops of 20% aqueous Tween 80 and then made up to volume with isotonic saline. […] Mice were weighed during the course of the experiments, and the percent change in body weight from onset to termination of therapy was used as an indication of drug toxicity. Determination of the sensitivity of neoplasms to these agents was based on the prolongation of survival time afforded by the drug treatments.\n^a Administered once daily for six consecutive days, beginnign 24\nhours after tumor transplanation, with 5 animals being used per group.\n^b Average change in body weight from onset to termination of therapy\n^c % T/C = average survival time of treated/control animals ×\n100. Each value represents the average of 5 animals per group."}, "[4]": {"tested_on": "P388 leukemia", "experiment": "Survival time of mice bearing the P388 leukemia", "format": "in vivo, mouse (CDF-1 mice)", "conditions": "at 150 mg/kg", "procedure": "The tumor-inhibitory properties of compounds 1-12 were determined by measuring their effects on the survival time of mice bearing the L1210 leukemia and in some cases Sarcoma 180, and the P388 leukemia. The ascites cell forms of the L1210 leukemia, Sarcoma 180 and P388 leukemia were propagated in CDF-1 mice. Transplantation was carried out using donor mice bearing 7-day tumor growths; experimental details are described in Agrawal et al., J. Med. Chem., 11, 700, 1968, incorporated herein by reference. Mice were weighed during the course of the experiments, and the percentage change in body weight from the onset to termination of therapy was used as an indication of host toxicity."}, "[5]": {"conditions": "10 mg/kg once daily for six days"}, "[6]": {"conditions": "20 mg/kg once daily for six days"}, "[7]": {"conditions": "30 mg/kg once daily for six days"}, "[8]": {"conditions": "50 mg/kg once daily for six days"}, "[9]": {"conditions": "100 mg/kg once daily for six days"}, "[10]": {"conditions": "150 mg/kg once daily for six days"}}, "note": "pIC50: −log10 of the molar value."}
{"smiles": "Cc1ccc(S(=O)(=O)N(C)NS(C)(=O)=O)cc1", "note": "[Compound 12]", "values": [{"measurement": "pIC50", "setting": "[1]", "result": 6.21}, {"measurement": "Average Survival Time of Treated Animals, days ± SE", "setting": "[2]; [5]", "result": "14.8 ± 0.4", "unit": "days"}, {"measurement": "Av. Change wt. %", "setting": "[2]; [5]", "result": "+9.1%"}, {"measurement": "Average Survival Time of Treated Animals, days ± SE", "setting": "[2]; [6]", "result": "15.0 ± 0.7", "unit": "days"}, {"measurement": "Av. Change wt. %", "setting": "[2]; [6]", "result": -2.0, "unit": "%"}, {"measurement": "Average Survival Time of Treated Animals, days ± SE", "setting": "[2]; [7]", "result": "19.2 ± 2.0", "unit": "days"}, {"measurement": "Av. Change wt. %", "setting": "[2]; [7]", "result": -7.9, "unit": "%"}, {"measurement": "response vs control in vivo at 10 mg/kg", "setting": "[2]; Mus musculus, 144 h, 10 mg/kg once daily for six days, L1210, read-out: % T/C", "result": 161, "unit": "%"}, {"measurement": "response vs control in vivo at 20 mg/kg", "setting": "[2]; Mus musculus, 144 h, 20 mg/kg once daily for six days, L1210, read-out: % T/C", "result": 163, "unit": "%"}, {"measurement": "response vs control in vivo at 30 mg/kg", "setting": "[2]; Mus musculus, 144 h, 30 mg/kg once daily for six days, L1210, read-out: % T/C", "result": 209, "unit": "%"}, {"measurement": "activity against the L1210 leukemia (in words)", "setting": "[2]; mouse, in vivo", "result": "high level of activity against the L1210 leukemia"}, {"measurement": "% T/C", "setting": "[3]; B16, daily dosage of 10 mg/kg (Table IV footnote d)", "result": 206, "unit": "% T/C"}, {"measurement": "% T/C", "setting": "[3]; B16, daily dosage of 20 mg/kg (Table IV footnote d)", "result": 206, "unit": "% T/C"}, {"measurement": "dosage range of activity against the B16 melanoma", "setting": "[3]; B16 melanoma in mice", "result": "10 to 30", "unit": "mg/kg"}, {"measurement": "Max. % T/C", "setting": "[3]", "result": 207, "unit": "% T/C"}, {"measurement": "toxicity at higher dosage levels (in words)", "setting": "[3]; above 10-30 mg/kg", "result": "toxic at higher dosage levels"}, {"measurement": "Av. Change in wt., %", "setting": "[3]", "result": -1.9, "unit": "%"}]}
{"smiles": "COc1ccc(S(=O)(=O)NN(C)S(=O)(=O)c2ccc(OC)cc2)cc1", "note": "[Compound 9, N,N'-bis (p-methoxybenzenesulfonyl)-N-methylhydrazine]", "values": [{"measurement": "Average Survival Time of Treated Animals, days ± SE", "setting": "[2]; [8]", "result": "13.4 ± 1.0", "unit": "days"}, {"measurement": "Av. Change wt. %", "setting": "[2]; [8]", "result": "+10.9%"}, {"measurement": "Average Survival Time of Treated Animals, days ± SE", "setting": "[2]; [9]", "result": "13.2 ± 1.1", "unit": "days"}, {"measurement": "Av. Change wt. %", "setting": "[2]; [9]", "result": "+1.9%"}, {"measurement": "Average Survival Time of Treated Animals, days ± SE", "setting": "[2]; [10]", "result": "12.2 ± 1.2", "unit": "days"}, {"measurement": "Av. Change wt. %", "setting": "[2]; [10]", "result": -1.6, "unit": "%"}, {"measurement": "response vs control in vivo at 50 mg/kg", "setting": "[2]; Mus musculus, 144 h, 50 mg/kg once daily for six days, L1210, read-out: % T/C", "result": 149, "unit": "%"}, {"measurement": "response vs control in vivo at 100 mg/kg", "setting": "[2]; Mus musculus, 144 h, 100 mg/kg once daily for six days, L1210, read-out: % T/C", "result": 147, "unit": "%"}, {"measurement": "response vs control in vivo at 150 mg/kg", "setting": "[2]; Mus musculus, 144 h, 150 mg/kg once daily for six days, L1210, read-out: % T/C", "result": 136, "unit": "%"}, {"measurement": "Max. % T/C vs. P388 leukemia", "setting": "[4]", "result": 136, "unit": "% T/C"}, {"measurement": "Max. % T/C", "setting": "[3]", "result": 191, "unit": "% T/C"}, {"measurement": "Av. Change in wt., %", "setting": "[3]", "result": "+2.4%"}]}
